Structures are written as SMILES.

Common to all, as to format: cell-based
Assay [1] has as its target T1, human TWIK-1 K+ channel, SEQ ID NO: 2 (Homo sapiens, UniProt O00180).
T1 construct: expressed in transfected cells; host or cells: Xenopus laevis oocytes injected with cRNA transcribed from pEXO-TWIK-1
T1 sequence (O00180 1-336): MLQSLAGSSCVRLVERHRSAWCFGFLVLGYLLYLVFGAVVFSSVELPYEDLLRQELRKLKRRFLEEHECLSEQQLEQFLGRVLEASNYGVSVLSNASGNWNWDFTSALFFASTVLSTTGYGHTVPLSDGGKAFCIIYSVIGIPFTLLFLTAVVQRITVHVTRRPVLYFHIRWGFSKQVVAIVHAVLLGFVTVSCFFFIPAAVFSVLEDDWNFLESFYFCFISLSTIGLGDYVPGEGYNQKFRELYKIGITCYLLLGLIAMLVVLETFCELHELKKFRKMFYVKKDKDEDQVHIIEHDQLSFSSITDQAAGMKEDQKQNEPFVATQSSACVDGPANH
Briefly: TWIK-1 K+ currents, two-electrode voltage clamp in Xenopus oocytes injected with TWIK-1 cRNA. The conditions noted are these: 30 nM, activation of protein kinase C. How it is done: For the functional study, the coding sequence of TWIK-1 was inserted between the noncoding sequences 5' and 3' of Xenopus globin in the vector pEXO (Lingueglia, E. et al., 1993, J. Biol. Chem., 269, 13736-13739). A complementary RNA (cRNA) was transcribed of this construction and injected in the oocytes of X laevis. In a 0.3ml perfusion chamber, a single oocyte was impaled on two standard glass microelectrodes (0.5 - 2.0 MW) charged with 3 M KCI and maintained under voltage-clamp with a Dagan TEV200 amplifier. The bath solution contained 98 mM KCl,1.8 raM CaCl2 […] and 5 mM HEPES at pH 7.4 with KOH. Stimulation of the preparation, data acquisition and analyses were carried out with the pClamp program (Axon Instruments) USA3.
Intracellular acidification of the oocytes was produced using two methods: • superfusion with a solution enriched in CO2 which produces acidification by a mechanism involving the bicarbonate transport system (Guillemare, E. et al., 1995, Mol. Pharmacol., 47, 588-594); • treatment with dinitrophenol (DNP), which is a metabolic inhibitor that decouples the H+ gradient in mitochondria and induces internal acidity (Pedersen, P. L. and Carafoli, E., 1997, Trends Biol. Sci., 12, 146-189).
(§1) Phosphorylation or dephosphorylation of specific amino acid residues is an important mechanism of regulation of the ionic channels (Levitan, I. B., 1994, Annul Rev. Physiol., 56, 193-212).

Assay [2] relates to human TWIK-1 K+ channel, mutation of the threonine 161 into alanine. The assay can be described thus: Currents of mutated TWIK-1 channel in Xenopus oocytes. As to conditions: mutant Thr161 to Ala. How it is done:
The TWIK-1 coding sequence was amplified using a low-error rate DNA polymerase (Pwo DNA pal, Boehringer) and subcloned in the plasmid pEXO so as to yield pEXO-TWIK-1. Mutations were performed using the whole plasmid pEXO-TWIK-1 with a highly reliable PCR extension kit (Boehringer) and two adjacent primers. One of these introduced a punctiform mutation in the IINIK-1 coding sequence, changing the 161 Thr codon into a codon for alanine. The product of the PCR was linearized by the enzyme BamHI and the cRNA were synthesized using a T7 RNA polymerase (Stratagene). Preparation of the X. larvis oocytes and cRNA injection were carried out in accordance with the literature (Guillemare, E. et al., 1992, Biochemistry. 31, 1246312468,
as §1

Assay [3] deals with human TASK1 K+ channel, SEQ ID NO: 4 (Homo sapiens, UniProt O14649). Briefly: TASK1 currents elicited by voltage pulses to +50 mV, two-electrode voltage clamp in Xenopus oocytes. As to conditions: 40 nM, activation of protein kinase C. How it is done: For functional studies, TASK1 cRNAs were injected into Xenopus oocytes. This was accomplished by subcloning a 2480 bp SmaI/XhoI fragment from pBS-hT ASK containing 14 bp of 5' UTR, the coding sequence and the entire 3' UTR into the pEXO vector (Lingueglia et al., 1993) to give pEXO-TASK1. Capped-cRNAs were synthesised in vitro from the linearized plasmid by using the T7 RNA polymerase (Stratagene). Xenopus laevis were purchased from CRBM (Montpellier, France). Preparation and cRNA injection of oocytes has been described elsewhere (Guillemare et al., 1992). Oocytes were used for electrophysiological studies 2 to 4 days following injection (20 ng/oocyte). In a 0.3 ml perfusion chamber, a single oocyte was impaled with two standard microelectrodes (1-2.5 Mn resistance) filled with 3 M KCI and maintained under voltage clamp by using a Dagan TEV 200 amplifier, in standard ND96 solution (96 mM NaC1. 2 mM KCI, 1.8 mM CaCI2, 2 mM MgCl2, 5 mM HEPES, pH 7.4 with NaOH). In some experiments, NaCl was substituted with TMA Cl (Tetra Methyl Ammonium Chloride). Stimulation of the preparation, data acquisition, and analysis were performed using pClamp software (Axon instruments, USA). Drugs were applied externally by addition to the superfusate (flow rate: 3 ml/min) or intracellularly injected by using a pressure microinjector (Inject+Matic, Switzedand). All experiments were performed at room temperature (21-22 °C).
Sequence of human TASK1 K+ channel, SEQ ID NO: 4 (O14649 whole entry, the tested form may be a part): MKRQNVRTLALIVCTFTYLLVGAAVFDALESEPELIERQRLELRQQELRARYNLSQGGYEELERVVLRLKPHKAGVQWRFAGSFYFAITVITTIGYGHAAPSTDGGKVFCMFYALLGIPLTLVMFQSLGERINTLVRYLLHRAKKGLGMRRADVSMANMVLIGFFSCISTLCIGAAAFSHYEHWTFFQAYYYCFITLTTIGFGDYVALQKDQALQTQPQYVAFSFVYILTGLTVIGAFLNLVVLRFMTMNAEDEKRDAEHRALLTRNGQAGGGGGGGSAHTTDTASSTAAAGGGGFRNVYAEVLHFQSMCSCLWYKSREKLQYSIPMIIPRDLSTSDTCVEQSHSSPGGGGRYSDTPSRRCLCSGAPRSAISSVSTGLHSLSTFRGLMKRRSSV
Figure 12A presents the I-V relationships of the current in K^+-rich solutions ranging from 2 mM to 98 mM. […] The theoretical I-V relationships in various [K^+]out calculated according to the Goldman-Hodgkin-Katz current equation are shown in Figure 12D. […] The effect of various pharmacological agents on currents elicited by voltage pulses to +50 mV has been studied in TASK1-expressing oocytes.
(In general: Two-electrode voltage clamp holds a large cell at a set potential and records current.)

Assay [4] concerns the target T2, human TASK-2 K+ channel, SEQ ID NO: 28 (Homo sapiens, UniProt O95279).
T2 construct: expressed in transfected cells; host or cells: COS cells transiently transfected with pIREScd8-TASK-2 (DEAE-dextran)
T2 sequence (O95279 1-499): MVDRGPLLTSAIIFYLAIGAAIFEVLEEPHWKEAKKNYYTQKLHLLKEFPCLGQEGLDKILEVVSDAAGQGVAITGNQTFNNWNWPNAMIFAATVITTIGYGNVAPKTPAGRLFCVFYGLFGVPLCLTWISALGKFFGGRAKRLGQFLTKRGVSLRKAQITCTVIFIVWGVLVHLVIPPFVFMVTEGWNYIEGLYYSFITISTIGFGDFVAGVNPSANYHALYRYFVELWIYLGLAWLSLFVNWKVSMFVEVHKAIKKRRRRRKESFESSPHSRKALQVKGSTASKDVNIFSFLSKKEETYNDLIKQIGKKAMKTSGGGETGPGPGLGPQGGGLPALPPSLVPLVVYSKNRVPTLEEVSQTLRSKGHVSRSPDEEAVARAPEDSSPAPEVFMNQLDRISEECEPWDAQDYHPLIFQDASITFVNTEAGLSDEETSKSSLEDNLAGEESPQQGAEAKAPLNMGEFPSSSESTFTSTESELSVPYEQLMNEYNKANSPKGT
Briefly: TASK-2 currents elicited by voltage pulses to +50 mV, whole cell recording in transfected COS cells. As to conditions: 70 nM, activation of PKC. How it is done:
For patch clamp analyses, a NotI/EcoRI fragment of 3.2 kb was excised from pBS-TASK 2 and subcloned into the pIRES-CD8 vectorto givepIREScdB-TASK-2. ThepIRES-CD8 vector was obtained by replacing the neo^R gene in the original vector pIRESneo (Clontech) by the coding sequence of the T type lymphocyte's surface marker CD8. COS cells were seeded at a density of 20,000 cells per 35 mm dishes 24 h prior to transfection. Cells were then transiently transfected by the classical DEAE-dextian method with 1 µg of prREScdB-TASK-2 plasmid per 35 mm dish. Transiently-transfected cells were visualized 48 h after transfection using the anti-CD8 antibody coated beads method (24). For whole cell recordings, the internal solution contained 150 mM KCI, 3 mM MgCl2, 5 mM EGTA, and 10 mM HEPES at pH 7.2 with KOH, and he external solution 150 mM NaCl, 5 mM KCI, 3 mM MgCl2 1 mM CaCl2, 10 mM HEPES at pH 7.4 with NaOH.
The effects of various pharmacological agents on currents elicited by voltage pulses to +50 mV have been studied in TASK-2-exprcssing. COS cells.

For `CCCCCCCCCCCCCC(=O)O[C@@H]1[C@@H](C)[C@@]2(O)[C@@H](C=C(CO)C[C@]3(O)C(=O)C(C)=C[C@@H]23)[C@@H]2C(C)(C)[C@]12OC(C)=O` [PMA, phorbol-12 myristate acetate], in assay [1], the “effect on TWIK-1 currents” value was “increases”. The “activation by PMA” value in assay [2] is on record as “conserves the capacity to be activated”. Further, in assay [3], the “sensitivity of TASK1 currents” value is given as “insensitive”. The “sensitivity of TASK-2 currents” value in assay [4] is “insensitive”.

For the origin of these results see patent publication EP1129187B1, “NEW FAMILY OF MAMMALIAN POTASSIUM CHANNELS, THEIR CLONING AND THEIR USE, ESPECIALLY FOR THE SCREENING OF DRUGS” (CENTRE NATIONAL DE LA RECHERCHE SCIENTIFIQUE (CNRS), priority 1998, dated 2000).
